Like-named read-outs stand apart in the source and are kept apart here.
Columns and labels:
Assay in all cases: KinomeScan kinase panel, single concentration 10 µM
Assay type in all cases: binding
KinomeScan kinase panel [1] = target: T1, KinomeScan kinase panel (Homo sapiens, UniProt Q9P289); conditions: MST4, 10 µM; read-out: score (%)
T1 construct: purchased DiscoveRx (KinomeScan)

KinomeScan kinase panel [2] = target: T2, KinomeScan kinase panel (Homo sapiens, UniProt P00533, L861Q); conditions: EGFR(L861Q), 10 µM
T2 construct: purchased DiscoveRx (KinomeScan)
T2 sequence (P00533 25-1210 L861Q): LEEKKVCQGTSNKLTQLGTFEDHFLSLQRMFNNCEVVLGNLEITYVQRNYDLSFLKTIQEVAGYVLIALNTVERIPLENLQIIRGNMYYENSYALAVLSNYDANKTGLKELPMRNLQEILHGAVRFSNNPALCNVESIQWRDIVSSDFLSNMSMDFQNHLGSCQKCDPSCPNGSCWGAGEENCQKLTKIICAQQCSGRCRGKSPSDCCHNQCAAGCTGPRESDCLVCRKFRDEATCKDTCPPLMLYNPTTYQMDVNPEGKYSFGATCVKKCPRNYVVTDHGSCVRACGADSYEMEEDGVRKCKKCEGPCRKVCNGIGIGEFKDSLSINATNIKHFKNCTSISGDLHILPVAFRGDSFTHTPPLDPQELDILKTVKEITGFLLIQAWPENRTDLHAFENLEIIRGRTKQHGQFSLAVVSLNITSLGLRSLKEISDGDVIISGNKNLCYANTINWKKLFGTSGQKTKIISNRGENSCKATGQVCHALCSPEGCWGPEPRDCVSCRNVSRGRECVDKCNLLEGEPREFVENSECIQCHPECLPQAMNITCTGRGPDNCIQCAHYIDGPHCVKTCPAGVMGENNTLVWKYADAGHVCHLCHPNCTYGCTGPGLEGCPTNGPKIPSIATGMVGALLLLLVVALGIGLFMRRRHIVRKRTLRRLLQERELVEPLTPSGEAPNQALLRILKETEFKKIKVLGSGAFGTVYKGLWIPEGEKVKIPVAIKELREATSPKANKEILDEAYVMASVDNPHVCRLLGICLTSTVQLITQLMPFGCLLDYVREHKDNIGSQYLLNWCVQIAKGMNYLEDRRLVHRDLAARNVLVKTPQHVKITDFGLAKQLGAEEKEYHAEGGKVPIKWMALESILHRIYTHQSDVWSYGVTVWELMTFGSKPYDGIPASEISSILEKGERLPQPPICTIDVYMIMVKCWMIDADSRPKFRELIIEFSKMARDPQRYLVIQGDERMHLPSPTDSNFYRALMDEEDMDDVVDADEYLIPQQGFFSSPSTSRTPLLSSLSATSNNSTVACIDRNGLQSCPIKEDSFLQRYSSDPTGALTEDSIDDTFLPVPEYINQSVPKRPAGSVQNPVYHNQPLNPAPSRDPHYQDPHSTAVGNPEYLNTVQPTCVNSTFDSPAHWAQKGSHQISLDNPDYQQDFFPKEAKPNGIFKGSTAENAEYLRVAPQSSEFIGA

KinomeScan kinase panel [3] = target: T3, KinomeScan kinase panel (Homo sapiens, UniProt P23458)
T3 construct: purchased DiscoveRx (KinomeScan)
T3 sequence (P23458 whole entry): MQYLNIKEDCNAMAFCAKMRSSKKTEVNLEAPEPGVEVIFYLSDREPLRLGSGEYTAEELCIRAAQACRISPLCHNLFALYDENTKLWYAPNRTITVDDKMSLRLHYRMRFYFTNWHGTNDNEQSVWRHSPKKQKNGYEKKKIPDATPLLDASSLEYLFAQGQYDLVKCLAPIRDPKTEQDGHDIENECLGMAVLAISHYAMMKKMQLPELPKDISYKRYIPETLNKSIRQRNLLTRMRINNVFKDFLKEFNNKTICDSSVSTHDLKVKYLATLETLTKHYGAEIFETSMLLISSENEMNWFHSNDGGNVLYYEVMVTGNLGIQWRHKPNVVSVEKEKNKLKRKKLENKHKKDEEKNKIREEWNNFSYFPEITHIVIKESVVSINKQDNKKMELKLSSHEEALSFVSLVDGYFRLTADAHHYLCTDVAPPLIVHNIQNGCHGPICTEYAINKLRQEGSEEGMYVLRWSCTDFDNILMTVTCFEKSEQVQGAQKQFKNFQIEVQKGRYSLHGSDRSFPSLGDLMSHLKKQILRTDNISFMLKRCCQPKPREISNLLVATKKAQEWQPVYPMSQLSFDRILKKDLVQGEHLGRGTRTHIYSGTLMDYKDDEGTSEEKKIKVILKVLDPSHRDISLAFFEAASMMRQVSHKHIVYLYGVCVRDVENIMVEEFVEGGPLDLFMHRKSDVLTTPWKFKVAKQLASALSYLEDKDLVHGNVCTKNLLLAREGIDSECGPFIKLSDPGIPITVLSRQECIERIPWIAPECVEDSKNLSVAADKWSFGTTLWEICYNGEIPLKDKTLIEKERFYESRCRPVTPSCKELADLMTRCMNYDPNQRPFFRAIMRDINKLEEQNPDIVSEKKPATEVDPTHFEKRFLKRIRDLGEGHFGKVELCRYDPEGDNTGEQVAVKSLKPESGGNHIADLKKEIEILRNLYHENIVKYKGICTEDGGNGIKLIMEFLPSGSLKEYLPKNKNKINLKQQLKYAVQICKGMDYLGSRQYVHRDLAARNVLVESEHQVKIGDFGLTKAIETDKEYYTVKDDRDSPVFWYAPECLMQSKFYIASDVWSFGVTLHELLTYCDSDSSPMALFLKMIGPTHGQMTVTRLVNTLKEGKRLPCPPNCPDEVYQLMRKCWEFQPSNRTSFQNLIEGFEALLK

KinomeScan kinase panel [4] = target: T4, KinomeScan kinase panel (Homo sapiens, UniProt O75676); conditions: 10 µM, read-out: score (%)
T4 construct: purchased DiscoveRx (KinomeScan)
T4 sequence (O75676 whole entry): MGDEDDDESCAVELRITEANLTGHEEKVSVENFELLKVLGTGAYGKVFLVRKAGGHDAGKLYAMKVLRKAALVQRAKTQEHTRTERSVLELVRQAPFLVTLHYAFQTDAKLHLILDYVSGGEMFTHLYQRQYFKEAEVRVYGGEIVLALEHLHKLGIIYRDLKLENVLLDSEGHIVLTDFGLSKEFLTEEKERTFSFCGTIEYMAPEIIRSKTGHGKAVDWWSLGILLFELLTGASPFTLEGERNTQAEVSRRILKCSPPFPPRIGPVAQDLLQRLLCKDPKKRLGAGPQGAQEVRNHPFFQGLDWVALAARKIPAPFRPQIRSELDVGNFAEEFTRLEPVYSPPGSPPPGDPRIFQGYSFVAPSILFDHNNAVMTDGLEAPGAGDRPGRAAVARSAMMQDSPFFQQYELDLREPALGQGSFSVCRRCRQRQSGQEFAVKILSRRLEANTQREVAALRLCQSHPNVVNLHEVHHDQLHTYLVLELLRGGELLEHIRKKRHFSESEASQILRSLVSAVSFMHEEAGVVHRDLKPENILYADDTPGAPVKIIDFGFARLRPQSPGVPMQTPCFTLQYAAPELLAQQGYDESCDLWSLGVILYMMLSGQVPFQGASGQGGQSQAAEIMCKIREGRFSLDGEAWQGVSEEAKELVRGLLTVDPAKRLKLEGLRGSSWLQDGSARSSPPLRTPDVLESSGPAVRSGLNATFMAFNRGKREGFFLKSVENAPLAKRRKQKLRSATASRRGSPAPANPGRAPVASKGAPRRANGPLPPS

KinomeScan kinase panel [5] = target: T5, KinomeScan kinase panel (Homo sapiens, UniProt P45985); conditions: MEK4, 10 µM; read-out: score (%)
T5 construct: purchased DiscoveRx (KinomeScan)
T5 sequence (P45985 1-399): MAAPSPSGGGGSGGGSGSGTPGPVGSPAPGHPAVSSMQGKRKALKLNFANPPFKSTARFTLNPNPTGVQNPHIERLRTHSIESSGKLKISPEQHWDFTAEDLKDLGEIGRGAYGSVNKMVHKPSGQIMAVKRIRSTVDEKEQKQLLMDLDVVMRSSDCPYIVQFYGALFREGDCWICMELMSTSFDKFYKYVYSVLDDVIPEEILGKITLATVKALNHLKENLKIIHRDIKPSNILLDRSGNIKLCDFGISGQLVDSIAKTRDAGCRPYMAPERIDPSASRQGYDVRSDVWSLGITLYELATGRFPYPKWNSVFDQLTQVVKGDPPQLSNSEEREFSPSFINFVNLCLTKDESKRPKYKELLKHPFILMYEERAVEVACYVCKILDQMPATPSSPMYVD

KinomeScan kinase panel [6] = target: T6, KinomeScan kinase panel (Homo sapiens, UniProt O43318); conditions: read-out: score (%)
T6 construct: purchased DiscoveRx (KinomeScan)
T6 sequence (O43318 1-606): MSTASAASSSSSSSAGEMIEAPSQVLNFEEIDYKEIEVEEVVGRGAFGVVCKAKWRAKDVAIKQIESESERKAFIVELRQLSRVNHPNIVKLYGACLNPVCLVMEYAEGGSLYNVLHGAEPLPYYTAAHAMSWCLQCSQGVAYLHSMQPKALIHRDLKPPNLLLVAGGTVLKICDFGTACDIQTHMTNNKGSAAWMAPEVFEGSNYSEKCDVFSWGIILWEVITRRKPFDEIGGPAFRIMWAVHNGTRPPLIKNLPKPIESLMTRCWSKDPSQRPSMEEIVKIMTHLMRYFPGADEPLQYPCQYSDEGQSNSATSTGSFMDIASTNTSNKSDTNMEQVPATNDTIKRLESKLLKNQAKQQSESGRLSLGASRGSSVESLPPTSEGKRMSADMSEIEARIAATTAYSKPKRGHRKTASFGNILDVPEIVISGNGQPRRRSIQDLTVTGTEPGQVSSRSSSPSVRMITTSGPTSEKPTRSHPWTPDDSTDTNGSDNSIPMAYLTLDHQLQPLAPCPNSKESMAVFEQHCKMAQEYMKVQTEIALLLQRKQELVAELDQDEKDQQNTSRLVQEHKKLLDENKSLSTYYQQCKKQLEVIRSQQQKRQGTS

KinomeScan kinase panel [7] = target: T7, KinomeScan kinase panel (Homo sapiens, UniProt O15075); conditions: DCAMKL1, 10 µM
T7 construct: purchased DiscoveRx (KinomeScan)
T7 sequence (O15075 whole entry): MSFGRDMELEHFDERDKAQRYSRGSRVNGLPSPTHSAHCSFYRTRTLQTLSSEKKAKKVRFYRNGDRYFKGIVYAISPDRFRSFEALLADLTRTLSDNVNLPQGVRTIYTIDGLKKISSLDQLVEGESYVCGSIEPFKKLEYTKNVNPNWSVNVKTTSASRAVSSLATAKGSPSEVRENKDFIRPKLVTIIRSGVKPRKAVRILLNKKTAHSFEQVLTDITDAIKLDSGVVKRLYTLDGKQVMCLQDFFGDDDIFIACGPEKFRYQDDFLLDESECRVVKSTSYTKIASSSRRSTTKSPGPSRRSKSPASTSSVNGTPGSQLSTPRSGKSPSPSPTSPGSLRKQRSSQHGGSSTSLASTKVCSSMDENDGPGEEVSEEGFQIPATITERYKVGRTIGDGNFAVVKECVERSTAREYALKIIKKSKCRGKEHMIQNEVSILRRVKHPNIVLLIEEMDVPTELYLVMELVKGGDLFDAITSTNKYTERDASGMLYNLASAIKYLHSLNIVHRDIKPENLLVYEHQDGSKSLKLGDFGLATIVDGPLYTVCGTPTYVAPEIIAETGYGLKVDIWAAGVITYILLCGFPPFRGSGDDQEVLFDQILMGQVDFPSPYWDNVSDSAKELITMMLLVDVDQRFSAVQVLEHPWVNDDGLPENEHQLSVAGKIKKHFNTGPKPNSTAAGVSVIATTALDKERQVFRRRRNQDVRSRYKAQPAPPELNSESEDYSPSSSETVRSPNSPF

KinomeScan kinase panel [8] = target: T8, KinomeScan kinase panel (Homo sapiens, UniProt P04049); conditions: read-out: score (%)
T8 construct: purchased DiscoveRx (KinomeScan)
T8 sequence (P04049 whole entry): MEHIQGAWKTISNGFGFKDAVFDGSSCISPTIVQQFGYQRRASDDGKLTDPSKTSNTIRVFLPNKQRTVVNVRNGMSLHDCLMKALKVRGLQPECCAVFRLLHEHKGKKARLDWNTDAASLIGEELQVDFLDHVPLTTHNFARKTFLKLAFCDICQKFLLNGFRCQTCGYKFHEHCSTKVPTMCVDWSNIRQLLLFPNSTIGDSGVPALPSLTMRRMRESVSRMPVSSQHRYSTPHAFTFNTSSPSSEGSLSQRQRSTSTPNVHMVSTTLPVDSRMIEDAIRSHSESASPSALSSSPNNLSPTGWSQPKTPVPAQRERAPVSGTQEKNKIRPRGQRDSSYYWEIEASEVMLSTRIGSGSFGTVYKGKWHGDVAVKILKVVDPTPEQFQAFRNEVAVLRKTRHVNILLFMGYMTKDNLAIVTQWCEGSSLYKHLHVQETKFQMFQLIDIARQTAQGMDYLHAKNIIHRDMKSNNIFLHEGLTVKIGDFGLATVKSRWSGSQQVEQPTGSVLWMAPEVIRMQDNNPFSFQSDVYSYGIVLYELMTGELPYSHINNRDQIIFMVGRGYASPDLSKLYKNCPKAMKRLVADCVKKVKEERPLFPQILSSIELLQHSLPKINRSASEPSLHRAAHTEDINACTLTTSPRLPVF

KinomeScan kinase panel [9] = target: T9, KinomeScan kinase panel (Homo sapiens, UniProt Q8IYT8); conditions: kinase ULK2; 10 µM; read-out: score (%)
T9 construct: purchased DiscoveRx (KinomeScan)
T9 sequence (Q8IYT8 1-1036): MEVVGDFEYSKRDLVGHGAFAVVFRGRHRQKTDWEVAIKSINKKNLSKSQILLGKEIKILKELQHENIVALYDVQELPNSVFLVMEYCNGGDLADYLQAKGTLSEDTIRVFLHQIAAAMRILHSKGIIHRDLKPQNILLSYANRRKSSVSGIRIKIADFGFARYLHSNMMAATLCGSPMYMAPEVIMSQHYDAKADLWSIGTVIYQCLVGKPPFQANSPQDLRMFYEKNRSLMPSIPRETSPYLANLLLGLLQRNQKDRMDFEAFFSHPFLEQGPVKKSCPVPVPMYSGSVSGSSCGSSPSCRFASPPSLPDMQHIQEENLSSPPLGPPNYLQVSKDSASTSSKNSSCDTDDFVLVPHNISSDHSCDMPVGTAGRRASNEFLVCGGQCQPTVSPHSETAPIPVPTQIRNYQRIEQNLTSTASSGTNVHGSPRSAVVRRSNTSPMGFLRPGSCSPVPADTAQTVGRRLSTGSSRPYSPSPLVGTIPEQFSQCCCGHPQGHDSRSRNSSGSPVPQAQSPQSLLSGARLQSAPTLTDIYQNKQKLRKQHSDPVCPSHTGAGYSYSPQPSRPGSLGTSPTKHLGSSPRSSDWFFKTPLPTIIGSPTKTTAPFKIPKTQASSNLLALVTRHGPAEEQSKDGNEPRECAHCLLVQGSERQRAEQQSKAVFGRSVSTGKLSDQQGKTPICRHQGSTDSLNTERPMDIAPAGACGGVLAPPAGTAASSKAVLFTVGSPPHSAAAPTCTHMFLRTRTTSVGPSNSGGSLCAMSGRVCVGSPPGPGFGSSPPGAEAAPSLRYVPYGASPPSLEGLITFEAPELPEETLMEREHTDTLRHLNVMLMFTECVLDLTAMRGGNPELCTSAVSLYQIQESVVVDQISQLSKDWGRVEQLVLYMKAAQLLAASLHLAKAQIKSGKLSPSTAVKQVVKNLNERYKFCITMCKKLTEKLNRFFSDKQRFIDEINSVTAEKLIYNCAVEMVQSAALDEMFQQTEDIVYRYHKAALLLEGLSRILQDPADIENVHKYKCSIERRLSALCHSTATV

[10] = JAK1(JH1domain-catalytic), 10 µM
[11] = kinase RPS6KA4(Kin.Dom.1-N-terminal)
[12] = kinase RPS6KA4(Kin.Dom.2-C-terminal)

T1 sequence (Q9P289 whole entry): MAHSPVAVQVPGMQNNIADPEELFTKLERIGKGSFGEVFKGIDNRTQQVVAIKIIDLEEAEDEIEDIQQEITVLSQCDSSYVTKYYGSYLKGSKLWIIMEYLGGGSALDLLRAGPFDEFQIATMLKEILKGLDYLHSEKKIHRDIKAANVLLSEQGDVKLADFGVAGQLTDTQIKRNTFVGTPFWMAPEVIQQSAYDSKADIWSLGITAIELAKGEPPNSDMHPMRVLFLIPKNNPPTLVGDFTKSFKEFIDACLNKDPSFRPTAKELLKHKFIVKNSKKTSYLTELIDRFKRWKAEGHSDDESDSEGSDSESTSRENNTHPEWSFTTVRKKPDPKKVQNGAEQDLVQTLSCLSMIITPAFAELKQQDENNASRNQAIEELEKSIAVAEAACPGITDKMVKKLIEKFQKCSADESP

Row | score (%) (KinomeScan kinase panel [3]; JAK1(Kin.Dom.2), 10 µM) | remaining binding at 10 µM (KinomeScan kinase panel [4]; RPS6KA4(Kin.Dom.1)) [%] | remaining binding at 10 µM (KinomeScan kinase panel [4]; RPS6KA4(Kin.Dom.2)) [%] | remaining binding at 10 µM (KinomeScan kinase panel [6]; TAK1, 10 µM) [%] | Structure (SMILES) | remaining binding at 10 µM (KinomeScan kinase panel [1]) [%] | score (%) (KinomeScan kinase panel [2]) | score (%) (KinomeScan kinase panel [3]) | score (%) (KinomeScan kinase panel [3]; [10]) | remaining binding at 10 µM (KinomeScan kinase panel [4]; [11]) [%] | remaining binding at 10 µM (KinomeScan kinase panel [4]; [12]) [%] | remaining binding at 10 µM (KinomeScan kinase panel [5]) [%] | remaining binding at 10 µM (KinomeScan kinase panel [6]; kinase TAK1, 10 µM) [%] | score (%) (KinomeScan kinase panel [7]) | remaining binding at 10 µM (KinomeScan kinase panel [8]; RAF1, 10 µM) [%] | remaining binding at 10 µM (KinomeScan kinase panel [9]) [%] | score (%) (KinomeScan kinase panel [3]; JAK1(Kin.Dom.1), 10 µM) | score (%) (KinomeScan kinase panel [3]; JAK1(JH2domain-pseudokinase), 10 µM) | remaining binding at 10 µM (KinomeScan kinase panel [8]; kinase RAF1, 10 µM) [%]
1 |  |  |  |  | CCN1CCN(Cc2ccc(NC(=O)c3ccc(C)c(NC(=O)c4cncc(-c5cccs5)c4)c3)cc2C(F)(F)F)CC1 [ALW-II-41-27] | 12 | 0 | nb (Hits values higher than 30% were considered negative (no binding: nb)) | 14 | 6.3 | > 30 | > 30 | 0 | nb (Hits values higher than 30% were considered negative (no binding: nb)) | 1.4 | > 30 |  |  | 
2 | 11 | > 30 | > 30 | 0.1 | CCN1CCN(Cc2ccc(NC(=O)c3ccc(C)c(/C=C/c4cnc5[nH]ccc5c4Cl)c3)cc2C(F)(F)F)CC1 [HG-6-63-01, (E)-3-(2-(4-chloro-1H-pyrrolo[2,3-b]pyridin-5-yl)vinyl)-N-(4-((4-ethylpiperazin-1-yl)methyl)-3-(trifluoromethyl)phenyl)-4-methylbenzamide] | 32 | 0 |  |  |  |  | > 30 |  | nb (Hits values higher than 30% were considered negative (no binding: nb)) | 2.4 | 27 | nb (Hits values higher than 30% were considered negative (no binding: nb)) |  | 
3 |  |  |  |  | CCN1CCN(Cc2ccc(NC(=O)c3ccc(C)c(C#Cc4cccnc4)c3)cc2C(F)(F)F)CC1 [XMD15-44] | 21 | 0.2 |  | 6.2 | 30 | 99 | > 30 | 0.2 | nb (Hits values higher than 30% were considered negative (no binding: nb)) |  | 50 |  | nb (Hits values higher than 30% were considered negative (no binding: nb)) | 0.5

From publication PMC4457528, “Identification of Novel Small Molecule Inhibitors of Oncogenic RET Kinase” (PLoS ONE, 2015)
